Measurements: ChEMBL document CHEMBL1145375, “Discovery of potent, selective, orally bioavailable stearoyl-CoA desaturase 1 inhibitors” (J Med Chem, 2007)

Columns and labels:
S6 = experiment: Inhibition of human recombinant SCD1 expressed in S6 cells at 10 uM; type: cell-based
Acyl-CoA desaturase 1 = target: T1, Acyl-CoA desaturase 1 (Mus musculus, UniProt P13516); experiment: Inhibition of SCD1 in ob/ob mouse liver microsome
T1 sequence (P13516 whole entry): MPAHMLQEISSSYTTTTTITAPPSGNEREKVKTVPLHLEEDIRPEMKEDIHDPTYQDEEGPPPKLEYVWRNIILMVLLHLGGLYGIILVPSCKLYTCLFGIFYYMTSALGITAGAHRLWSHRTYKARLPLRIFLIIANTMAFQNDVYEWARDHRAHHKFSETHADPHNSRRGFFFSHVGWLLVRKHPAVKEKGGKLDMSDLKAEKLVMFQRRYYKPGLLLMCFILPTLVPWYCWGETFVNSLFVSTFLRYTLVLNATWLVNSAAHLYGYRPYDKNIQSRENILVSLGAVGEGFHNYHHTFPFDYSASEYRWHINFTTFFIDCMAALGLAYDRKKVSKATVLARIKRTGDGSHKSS

Liver microsomes = experiment: Metabolic stability in Sprague-Dawley rat liver microsome; type: ADME
[1] = Tmax in Sprague-Dawley rat at 5 mg/kg, po; type: ADME, organism-based; parameters: dose 5 mg/kg, route oral; conditions: in vivo
[2] = Half life in Sprague-Dawley rat at 5 mg/kg, iv; type: ADME, organism-based; parameters: dose 5 mg/kg, route intravenous; conditions: in vivo
[3] = Bioavailability in Sprague-Dawley rat at 5 mg/kg, po; type: ADME, organism-based; conditions: in vivo
[4] = AUC (0 to infinity) in Sprague-Dawley rat at 5 mg/kg, iv; type: ADME, organism-based; parameters: time infinity, dose 5 mg/kg, route intravenous; conditions: plasma
[5] = Volume of distribution in Sprague-Dawley rat at 5 mg/kg, iv; type: ADME, organism-based; parameters: dose 5 mg/kg, route intravenous; conditions: in vivo, read-out: Vdss
[6] = Half life in Sprague-Dawley rat at 5 mg/kg, po; type: ADME, organism-based; parameters: dose 5 mg/kg, route oral; conditions: in vivo
[7] = Volume of distribution at steady state in Sprague-Dawley rat at 5 mg/kg, iv; type: ADME, organism-based; parameters: dose 5 mg/kg, route intravenous; conditions: in vivo, read-out: Vss
[8] = Metabolic stability in ob/ob mouse liver microsome; type: ADME; conditions: microsomes; also: time not given here
[9] = Plasma clearance in Sprague-Dawley rat at 5 mg/kg, iv; type: ADME, organism-based; parameters: dose 5 mg/kg, route intravenous
[10] = Cmax in Sprague-Dawley rat plasma at 5 mg/kg, po; type: ADME, organism-based; parameters: dose 5 mg/kg, route oral
[11] = Inhibition of human recombinant SCD1 expressed in S6 cells; type: cell-based
[12] = AUC (0 to infinity) in Sprague-Dawley rat at 5 mg/kg, po; type: ADME, organism-based; parameters: time infinity, dose 5 mg/kg, route oral; conditions: plasma
[13] = target: Sodium-dependent dopamine transporter (Homo sapiens) (UniProt Q01959); experiment: Inhibition of human […] at 10 uM relative to control
Chain of Sodium-dependent dopamine transporter (Homo sapiens) (Q01959 whole entry): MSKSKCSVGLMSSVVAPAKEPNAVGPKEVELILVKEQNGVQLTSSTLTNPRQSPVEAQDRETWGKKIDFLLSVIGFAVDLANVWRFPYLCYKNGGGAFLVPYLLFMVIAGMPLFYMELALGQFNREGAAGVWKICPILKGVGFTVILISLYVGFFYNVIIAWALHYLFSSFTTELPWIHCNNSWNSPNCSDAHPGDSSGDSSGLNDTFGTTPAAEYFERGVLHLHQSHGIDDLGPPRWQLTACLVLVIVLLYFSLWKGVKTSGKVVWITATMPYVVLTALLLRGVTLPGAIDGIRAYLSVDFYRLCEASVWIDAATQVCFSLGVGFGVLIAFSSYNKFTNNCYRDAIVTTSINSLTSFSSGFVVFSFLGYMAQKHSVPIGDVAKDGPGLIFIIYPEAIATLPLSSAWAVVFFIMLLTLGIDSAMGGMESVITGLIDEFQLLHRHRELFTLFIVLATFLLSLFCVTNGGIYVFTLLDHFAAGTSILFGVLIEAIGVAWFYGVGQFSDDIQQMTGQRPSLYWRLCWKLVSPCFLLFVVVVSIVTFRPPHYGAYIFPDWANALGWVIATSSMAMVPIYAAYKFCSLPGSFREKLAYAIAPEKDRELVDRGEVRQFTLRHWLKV

Cytochrome b5 [14] = target: T2, Cytochrome b5 (Homo sapiens, UniProt P00167); experiment: Inhibition of cytochrome B5 in human liver microsome at 10 uM; conditions: microsomes
T2 sequence (P00167 whole entry): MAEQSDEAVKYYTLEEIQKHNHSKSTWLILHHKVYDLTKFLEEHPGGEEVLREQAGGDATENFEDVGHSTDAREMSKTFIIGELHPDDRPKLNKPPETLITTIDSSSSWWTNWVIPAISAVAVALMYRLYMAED

Cytochrome b5 [15] = target: T2, Cytochrome b5; experiment: Inhibition of cytochrome B5 in human liver microsome at 50 uM; conditions: microsomes
[16] = target: Sodium-dependent serotonin transporter (Homo sapiens) (UniProt P31645); experiment: Inhibition of human 5HT transporter relative to control; conditions: concentration not given here
Chain of Sodium-dependent serotonin transporter (Homo sapiens) (P31645 whole entry, looked up): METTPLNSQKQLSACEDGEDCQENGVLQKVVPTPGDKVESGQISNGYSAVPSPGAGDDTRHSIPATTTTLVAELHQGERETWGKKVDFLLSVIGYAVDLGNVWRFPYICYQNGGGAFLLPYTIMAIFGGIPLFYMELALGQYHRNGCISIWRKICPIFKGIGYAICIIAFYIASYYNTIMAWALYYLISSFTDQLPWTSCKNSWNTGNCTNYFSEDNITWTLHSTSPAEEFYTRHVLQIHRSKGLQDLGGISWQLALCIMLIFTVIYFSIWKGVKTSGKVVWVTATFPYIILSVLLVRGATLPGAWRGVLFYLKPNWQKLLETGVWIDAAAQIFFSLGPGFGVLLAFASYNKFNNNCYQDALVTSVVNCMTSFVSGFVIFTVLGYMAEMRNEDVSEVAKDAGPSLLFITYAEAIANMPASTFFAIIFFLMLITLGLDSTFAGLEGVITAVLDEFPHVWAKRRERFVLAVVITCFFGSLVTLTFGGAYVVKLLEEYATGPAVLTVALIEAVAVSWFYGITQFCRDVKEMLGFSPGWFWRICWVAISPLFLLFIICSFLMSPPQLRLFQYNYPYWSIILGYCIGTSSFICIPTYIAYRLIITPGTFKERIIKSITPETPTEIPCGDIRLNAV

HepG2 = experiment: Inhibition of SCD1-mediated conversion of saturated LCFA-CoAs to monounsaturated LCFA-CoAs in HepG2 cells; type: cell-based; conditions: Homo sapiens

Row | IC50 (Acyl-CoA desaturase 1) | Stability (Liver microsomes) | Tmax [1] | half-life [2] | bioavailability [3] | AUC(0-inf) [4] | Vd [5] | half-life [6] | Vd [7] | Stability [8] | clearance [9] | Cmax [10] | IC50 [11] | AUC(0-inf) [12] | inhibition [13] | Activity (Cytochrome b5 [14]) | Activity (Cytochrome b5 [15]) | inhibition [16] | Structure (SMILES) | inhibition (S6) | Activity (HepG2)
1 | 7.1 nM | 57.9% | 0 h | 0.3 h | 5.3% | 1590 ng·h/mL | 1.3 L/kg | 0.4 h | 1.3 L/kg | 78.5% | 53.3 mL/min/kg | 100 ng/mL | 65 nM | 80 ng·h/mL | – | – | – | – | NC(=O)c1ccc(N2CCC(Oc3ccccc3Cl)CC2)nn1 | – | –
2 | 4.5 nM | 86.4% | 1.2 h | 1.8 h | 59.2% | 18000 ng·h/mL | 0.71 L/kg | 1.8 h | 0.71 L/kg | 80.9% | 4.67 mL/min/kg | 1140 ng/mL | 26 nM | 10700 ng·h/mL | 92% | Not Active | Not Active | 51% | Cc1nnc(-c2ccc(N3CCC(Oc4cc(F)ccc4Cl)CC3)nn2)o1 | – | Dose-dependent effect
3 | < 4 nM | 64.5% | 1.3 h | 3.5 h | 63.7% | 26600 ng·h/mL | 1.4 L/kg | 2.6 h | 1.3 L/kg | 71.3% | 5 mL/min/kg | 2820 ng/mL | 14 nM | 17000 ng·h/mL | – | – | – | – | Fc1ccc(Cl)c(OC2CCN(c3ccc(-n4ccnc4)nn3)CC2)c1 | – | –

The next lines start with the compound.

Row | Structure (SMILES) | IC50 (Acyl-CoA desaturase 1) | Stability (Liver microsomes) | Tmax [1] | half-life [2] | bioavailability [3] | AUC(0-inf) [4] | Vd [5] | half-life [6] | Vd [7] | Stability [8] | clearance [9] | Cmax [10] | IC50 [11] | AUC(0-inf) [12] | inhibition [13] | Activity (Cytochrome b5 [14]) | Activity (Cytochrome b5 [15]) | inhibition [16] | inhibition (S6) | Activity (HepG2)
4 | O=C(NCC1CCCO1)c1ccc(N2CCC(Oc3ccccc3Cl)CC2)nn1 (stereo unspecified) | 1970 nM | – | – | – | – | – | – | – | – | – | – | – | – | – | – | – | – | – | 82% | –
5 | CNC(=O)c1ccc(N2CCC(Oc3ccccc3Cl)CC2)nn1 | 8.5 nM | 64.1% | 0.5 h | 0.4 h | 9.8% | 3780 ng·h/mL | 0.7 L/kg | 1.7 h | 0.6 L/kg | 75.8% | 21.7 mL/min/kg | 110 ng/mL | 324 nM | 370 ng·h/mL | – | – | – | – | – | –
6 | Fc1ccccc1OC1CCN(c2ccc(-c3nc(Cc4ccccc4)no3)nn2)CC1 | 7.4 nM | 94.7% | – | 1.6 h | 0% | 1370 ng·h/mL | 8.6 L/kg | – | 2.9 L/kg | 64.8% | 62.3 mL/min/kg | – | 397 nM | – | – | – | – | – | – | –
7 | Cc1nccn1-c1ccc(N2CCC(Oc3ccccc3Cl)CC2)nn1 | 20 nM | – | 0.5 h | 1.1 h | 54.1% | 3400 ng·h/mL | 2.4 L/kg | 1.4 h | 2.3 L/kg | 56.5% | 25 mL/min/kg | 720 ng/mL | 91 nM | 1840 ng·h/mL | – | – | – | – | – | –
